# From US9169241B2, “Quinolinyloxyphenylsulfonamides” (Max-Planck-Gesellschaft Zur Forderung der Wissenschaften …, priority 2009, dated 2015)
# Where a name gives a salt, the structure may show the parent alone. Read-outs that look alike come from different tables or passages of the source.
# Assays:
# viable cells in culture = assay: Cell viability assay at 10 μM (CellTiter-Glo, Table VII); type: cell-based; settings: compound 10 μM, 72 h;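 also: graded A 0-20%; B 21-40%; C 41-60%; D over 60% viable cells relative to DMSO control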
# Protocol: The CellTiter-Glo® Luminescent Cell Viability Assay (Promega Corporation. Madison, Wis., USA) is method a determining the number of viable cells in culture based on quantification of the ATP being present which is an indicator of metabolically active cells was used according to manufacturers protocol. In detail the assay was performed in a 96 well format were 1000 cells/well were incubated with compound at concentration 10 μM as well as DMSO control for 72 h in 100 μl cell culture medium. Percentage of inhibition was calculated compared to ATP amount of DMSO control.
# [1] = Homo sapiens, HCT-116, HCT116 def, read-out: percentage (%) of viable cells HCT 116def
# [2] = Homo sapiens, HCT-116, HCT116 wt, read-out: percentage (%) of viable cells HCT 116wt
# [3] = Homo sapiens, HT-29, HT29, read-out: percentage (%) of viable cells HT29
# [4] = Homo sapiens, NCI-H358, H358, read-out: percentage (%) of viable cells H358
# [5] = Homo sapiens, NCI-H1650, H1650, read-out: percentage (%) of viable cells H1650
# [6] = Homo sapiens, NCI-H1666, H1666, read-out: percentage (%) of viable cells H1666
# [7] = Homo sapiens, NCI-H1975, H1975, read-out: percentage (%) of viable cells H1975
# [8] = Homo sapiens, NCI-H1993, H1993, read-out: percentage (%) of viable cells H1993
# [9] = Homo sapiens, A549, read-out: percentage (%) of viable cells A549
# [10] = Homo sapiens, HCC827, read-out: percentage (%) of viable cells HCC827
# [11] = Homo sapiens, SW480, read-out: percentage (%) of viable cells SW480
# [12] = RKO, read-out: percentage (%) of viable cells RKO
melting point [°C],Compound,further results
158 to 160,"COc1cc2c(Oc3ccc(NS(=O)(=O)C4CC4)cc3F)ccnc2cc1OCCCN1CCCC(C)C1 (stereo not drawn) [Example 60, Cyclopropanesulfonic acid (3-fluoro-4-{6-methoxy-7-[3-(3-methyl-piperidin-1-yl)-propoxy]-quinolin-4-yloxy}-phenyl)-amide]",
175 to 176,"COc1cc2c(Oc3ccc(NS(=O)(=O)c4ccccc4OC)cc3F)ccnc2cc1OCCCN1CCCC(C)C1 (stereo not drawn) [Example 71, N-(3-Fluoro-4-{6-methoxy-7-[3-(3-methyl-piperidin-1-yl)-propoxy]-quinolin-4-yloxy}-phenyl)-2-methoxy-benzenesulfonamide]",
186 to 188,"COc1cc2c(Oc3cccc(NS(=O)(=O)c4cc(F)ccc4F)c3)ccnc2cc1OCCCN1CCN(C)CC1 [Example 123, 2,5-Difluoro-N-(3-{6-methoxy-7-[3-(4-methyl-piperazin-1-yl)-propoxy]-quinolin-4-yloxy}-phenyl)-benzenesulfonamide]",
214 to 216,"COc1cc2c(Oc3ccc(NS(=O)(=O)c4ccccc4F)cc3F)ccnc2cc1OCCCN1CCCCC1 [Example 2, 2-Fluoro-N-{3-fluoro-4-[6-methoxy-7-(3-piperidin-1-yl-propoxy)-quinolin-4-yloxy]-phenyl}-benzenesulfonamide]",
82 to 84,COc1cc2c(Oc3ccc(NS(=O)(=O)c4cccc(F)c4)cc3F)ccnc2cc1OCCCN1CCN(C)CC1 [Example 22],viability at 10 µM (viable cells in culture; [1]): 21 to 40%; viability at 10 µM (viable cells in culture; [2]): 21 to 40%; viability at 10 µM (viable cells in culture; [3]): 0 to 20%; viability at 10 µM (viable cells in culture; [4]): 0 to 20%; viability at 10 µM (viable cells in culture; [5]): 21 to 40%; viability at 10 µM (viable cells in culture; [6]): 21 to 40%; viability at 10 µM (viable cells in culture; [7]): 0 to 20%; viability at 10 µM (viable cells in culture; [8]): 0 to 20%; viability at 10 µM (viable cells in culture; [9]): > 60%; viability at 10 µM (viable cells in culture; [10]): 21 to 40%; viability at 10 µM (viable cells in culture; [11]): 0 to 20%; viability at 10 µM (viable cells in culture; [12]): 21 to 40%
110 to 112,"COc1cc2c(Oc3ccc(NS(=O)(=O)c4cccc(Cl)c4)cc3F)ccnc2cc1OCCCN1CCCC(C)C1 (stereo not drawn) [Example 69, 3-Chloro-N-(3-fluoro-4-{6-methoxy-7-[3-(3-methyl-piperidin-1-yl)-propoxy]-quinolin-4-yloxy}-phenyl)-benzenesulfonamide]",
108 to 110,"COc1cc2c(Oc3ccc(NS(=O)(=O)c4ccc(F)c(Cl)c4)cc3F)ccnc2cc1OCCCN1CCN(C)CC1 [Example 23, 3-Chloro-4-fluoro-N-(3-fluoro-4-{6-methoxy-7-[3-(4-methyl-piperazin-1-yl)-propoxy]-quinolin-4-yloxy}-phenyl)-benzenesulfonamide]",viability at 10 µM (viable cells in culture; [1]): 0 to 20%; viability at 10 µM (viable cells in culture; [2]): 0 to 20%; viability at 10 µM (viable cells in culture; [3]): 0 to 20%; viability at 10 µM (viable cells in culture; [4]): 0 to 20%; viability at 10 µM (viable cells in culture; [5]): 21 to 40%; viability at 10 µM (viable cells in culture; [6]): 21 to 40%; viability at 10 µM (viable cells in culture; [7]): 0 to 20%; viability at 10 µM (viable cells in culture; [8]): 0 to 20%; viability at 10 µM (viable cells in culture; [9]): 41 to 60%; viability at 10 µM (viable cells in culture; [10]): 21 to 40%; viability at 10 µM (viable cells in culture; [11]): 0 to 20%; viability at 10 µM (viable cells in culture; [12]): 0 to 20%
190 to 191,"COc1cc2c(Oc3ccc(NS(=O)(=O)c4cccc5cccnc45)cc3F)ccnc2cc1OCCCN1CCCC(C)C1 (stereo not drawn) [Example 74, Quinoline-8-sulfonic acid (3-fluoro-4-{6-methoxy-7-[3-(3-methyl-piperidin-1-yl)-propoxy]-quinolin-4-yloxy}-phenyl)-amide]",
98 to 100,"CCCCS(=O)(=O)Nc1ccc(Oc2ccnc3cc(OCCCN4CCOCC4)c(OC)cc23)c(F)c1 [Example 79, Butane-1-sulfonic acid {3-fluoro-4-[6-methoxy-7-(3-morpholin-4-yl-propoxy)-quinolin-4-yloxy]-phenyl}-amide]",
146 to 147,"COc1cc2c(Oc3ccc(NS(=O)(=O)c4cccs4)cc3F)ccnc2cc1OCCN1CCOCC1 [Example 105, Thiophene-2-sulfonic acid {3-fluoro-4-[6-methoxy-7-(2-morpholin-4-yl-ethoxy)-quinolin-4-yloxy]-phenyl}-amide]",
201 to 202,"COc1cc2c(Oc3ccc(NS(=O)(=O)c4cccs4)cc3F)ccnc2cc1OCCCN1CCN(C)CC1 [Example 31, Thiophene-2-sulfonic acid (3-fluoro-4-{6-methoxy-7-[3-(4-methyl-piperazin-1-yl)-propoxy]-quinolin-4-yloxy}-phenyl)-amide]",
213 to 214,"COc1cc2c(Oc3ccc(NS(=O)(=O)c4ccn(C)n4)cc3F)ccnc2cc1OCCN1CCOCC1 [Example 107, 1-Methyl-1H-pyrazole-3-sulfonic acid {3-fluoro-4-[6-methoxy-7-(2-morpholin-4-yl-ethoxy)-quinolin-4-yloxy]-phenyl}-amide]",
106 to 108,"COc1cc2c(Oc3ccc(NS(=O)(=O)c4ccccc4C(F)(F)F)cc3F)ccnc2cc1OCCCNC(=O)NC(C)(C)C [Example 98, N-(4-{7-[3-(3-tert-Butyl-ureido)-propoxy]-6-methoxy-quinolin-4-yloxy}-3-fluoro-phenyl)-2-trifluoromethyl-benzenesulfonamide]",
128 to 130,"COc1cc2c(Oc3ccc(NS(=O)(=O)c4cccc(C(F)(F)F)c4)cc3F)ccnc2cc1OCCCN1CCCC(C)C1 (stereo not drawn) [Example 39, ′N-(3-Fluoro-4-{6-methoxy-7-[3-(3-methyl-piperidin-1-yl)-propoxy]-quinolin-4-yloxy}-phenyl)-3-trifluoromethyl-benzenesulfonamide]",
125 to 126,"COc1cc2c(Oc3ccc(NS(=O)(=O)c4ccccc4C(F)(F)F)c(F)c3)ccnc2cc1OCCCN1CCCC(C)C1 (stereo not drawn) [Example 215, N-(2-Fluoro-4-{6-methoxy-7-[3-(3-methyl-piperidin-1-yl)-propoxy]-quinolin-4-yloxy}-phenyl)-2-trifluoromethyl-benzenesulfonamide]",
152 to 154,"CCn1cc(S(=O)(=O)Nc2ccc(Oc3ccnc4cc(OCCCN5CCCC(C)C5)c(OC)cc34)c(F)c2)cn1 (stereo not drawn) [Example 68, 1-Ethyl-1H-pyrazole-4-sulfonic acid (3-fluoro-4-{6-methoxy-7-[3-(3-methyl-piperidin-1-yl)-propoxy]-quinolin-4-yloxy}-phenyl)-amide]",
164 to 166,"COc1cc2c(Oc3ccc(NS(=O)(=O)c4ccn(C)n4)cc3F)ccnc2cc1OCCCN1CCCC(C)C1 (stereo not drawn) [Example 61, 1-Methyl-1H-pyrazole-3-sulfonic acid (3-fluoro-4-{6-methoxy-7-[3-(3-methyl-piperidin-1-yl)-propoxy]-quinolin-4-yloxy}-phenyl)-amide]",
172 to 174,"COc1cccc(S(=O)(=O)Nc2ccc(Oc3ccnc4cc(OCCCN5CCCC(C)C5)c(OC)cc34)c(F)c2)c1 (stereo not drawn) [Example 42, N-(3-Fluoro-4-{6-methoxy-7-[3-(3-methyl-piperidin-1-yl)-propoxy]-quinolin-4-yloxy}-phenyl)-3-methoxy-benzenesulfonamide]",
182 to 183,"COc1cc2c(Oc3ccc(NS(=O)(=O)c4ccccc4OC)cc3F)ccnc2cc1OCCN1CCOCC1 [Example 103, N-{3-Fluoro-4-[6-methoxy-7-(2-morpholin-4-yl-ethoxy)-quinolin-4-yloxy]-phenyl}-2-methoxy-benzenesulfonamide]",
104 to 106,"COc1cc2c(Oc3ccc(NS(=O)(=O)/C=C/c4ccccc4)cc3F)ccnc2cc1OCCCN1CCCC(C)C1 (stereo not drawn) [Example 73, 2-Phenyl-ethenesulfonic acid (3-fluoro-4-{6-methoxy-7-[3-(3-methyl-piperidin-1-yl)-propoxy]-quinolin-4-yloxy}-phenyl)-amide]",
152 to 156,"COc1cc2c(Oc3ccc(NS(=O)(=O)c4ccccc4C(F)(F)F)c(F)c3)ccnc2cc1OCCCN1CCCC1 [Example 213, N-{2-Fluoro-4-[6-methoxy-7-(3-pyrrolidin-1-yl-propoxy)-quinolin-4-yloxy]-phenyl}-2-trifluoromethyl-benzenesulfonamide]",
188 to 190,"COc1cc2c(Oc3ccc(NS(=O)(=O)c4cc(F)ccc4F)cc3F)ccnc2cc1OCCCN (as salt: hydrochloride) [Example 122, N-{4-[7-(3-Amino-propoxy)-6-methoxy-quinolin-4-yloxy]-3-fluoro-phenyl}-2,5-difluoro-benzenesulfonamide hydrochloride]",
95 to 97,"COc1cc2c(Oc3ccc(NS(=O)(=O)c4cccc(OC(F)F)c4)cc3F)ccnc2cc1OCCCN1CCN(C)CC1 [Example 30, 3-Difluoromethoxy-N-(3-fluoro-4-{6-methoxy-7-[3-(4-methyl-piperazin-1-yl)-propoxy]-quinolin-4-yloxy}-phenyl)-benzenesulfonamide]",

Compound,melting point [°C],further results
"COc1cc2c(Oc3ccc(NS(=O)(=O)c4ccccc4C(F)(F)F)cc3F)ccnc2cc1OCCCCN1CCOCC1 [Example 214, N-{3-Fluoro-4-[6-methoxy-7-(4-morpholin-4-yl-butoxy)-quinolin-4-yloxy]-phenyl}-2-trifluoromethyl-benzenesulfonamide]",102 to 104,
